Molecules are shown by their SMILES. Structures can show the parent of a compound that is named as a salt.

The target of one data set is T1, P-gp (MDR1) (Homo sapiens, UniProt P08183).
T1 construct: expressed in transfected cells; host or cells: LLC-PK1 (porcine kidney) cells transfected with MDR1
As to the kind of experiment: Efflux ratio in MDR1 transfected LLC-PK1 cells. It is filed as in vitro ADME. Conditions: pig, Papp(B−A)/Papp(A−B). The method, then: (§1) Both LLC-PK1 and MDR1 transfected LLC-PK1 cells were cultured and plated according to manufacturer's recommendations with the exception that the passage media contained only 2% fetal bovine serum to extend passage time out to seven days.
(§2) Both positive and negative controls were used to assess functionality of P-gp or BCRP efflux in the assays. Stock solutions for assay controls and the test article were prepared in DMSO for final test concentrations of 10 and 1 μM, respectively. Final organic concentration in the assay was 1%. All dosing solutions contained 10 μM lucifer yellow to monitor LLC-PK1 or MDCKII cell monolayer integrity.
(§3) For the apical to basolateral determination (A to B), 75 μL of the test article in transport buffer were added to the apical side of the individual transwells and 250 μL of basolateral media, without compound or lucifer yellow, were added to each well. For the basolateral to apical determination (B to A), 250 μL of test article in transport buffer were added to each well and 75 μL transport buffer, without compound or lucifer yellow, were added to each transwell. All tests were performed in triplicate, and each compound was tested for both apical to basolateral and basolateral to apical transport. The plates were incubated for 2 hours on a Lab-Line Instruments Titer Orbital Shaker (VWR, West Chester, PA) at 50 rpm and 37° C. with 5% CO2. All culture plates were removed from the incubator and 50 μL of media were removed from the apical and basolateral portion of each well and added to 150 μL of 1 μM labetalol in 2:1 acetonitrile (acetonitrile): H2O, v/v.
(§4) The plates were read using a Molecular Devices (Sunnyvale, CA) Gemini Fluorometer to evaluate the lucifer yellow concentrations at excitation/emission wavelengths of 425/535 nm. These values were accepted when found to be below 2% for apical to basolateral and 5% basolateral to apical flux across the MDR1-transfected LLC-PK1 or BCRP-transfected MDCKII cell monolayers. The plates were sealed and the contents of each well analyzed by LC-MS/MS. The compound concentrations were determined from the ratio of the peak areas of the compound to the internal standard (labetalol) in comparison to the dosing solution.
(§5) The LC-MS/MS system was comprised of an HTS-PAL autosampler (Leap Technologies, Carrboro, NC), an HP1200 HPLC (Agilent, Palo Alto, CA), and a MDS Sciex 4000 Q Trap system (Applied Biosystems, Foster City, CA). […] The total run time, including re-equilibration, for a single injection was 1.2 minutes. Mass spectrometric detection of the analytes was accomplished using the ion spray positive mode. Analyte responses were measured by multiple reaction monitoring (MRM) of transitions unique to each compound (the protonated precursor ion and selected product ions for each test article and m/z 329 to m/z 162 for labetalol, the internal standard).
(§6) An efflux ratio is calculated from the mean apical to basolateral (A−B) Papp data and basolateral to apical (B−A) Papp data: Efflux ratio=Papp(B−A)/Papp(A−B)

Data set [1] can be described thus: MDR1 LLC-PK1 and BCRP MDCKII Permeability Assay: permeability coefficient (Papp). It is filed as in vitro ADME. Conditions: MDCK, test article 1 μM, 37° C. As to the method:
as §1
(§7) BCRP transfected MDCKII canine P-gp knockout cell line was cultured and plated according to manufacturer's recommendations.
as §2, §3, §4, §5

The target in another data set is T2, BCRP (hBCRP) (Homo sapiens, UniProt Q9UNQ0).
T2 construct: expressed in transfected cells; host or cells: MDCKII (canine kidney) cells, canine P-gp knockout, transfected with BCRP
T2 sequence (Q9UNQ0 1-655): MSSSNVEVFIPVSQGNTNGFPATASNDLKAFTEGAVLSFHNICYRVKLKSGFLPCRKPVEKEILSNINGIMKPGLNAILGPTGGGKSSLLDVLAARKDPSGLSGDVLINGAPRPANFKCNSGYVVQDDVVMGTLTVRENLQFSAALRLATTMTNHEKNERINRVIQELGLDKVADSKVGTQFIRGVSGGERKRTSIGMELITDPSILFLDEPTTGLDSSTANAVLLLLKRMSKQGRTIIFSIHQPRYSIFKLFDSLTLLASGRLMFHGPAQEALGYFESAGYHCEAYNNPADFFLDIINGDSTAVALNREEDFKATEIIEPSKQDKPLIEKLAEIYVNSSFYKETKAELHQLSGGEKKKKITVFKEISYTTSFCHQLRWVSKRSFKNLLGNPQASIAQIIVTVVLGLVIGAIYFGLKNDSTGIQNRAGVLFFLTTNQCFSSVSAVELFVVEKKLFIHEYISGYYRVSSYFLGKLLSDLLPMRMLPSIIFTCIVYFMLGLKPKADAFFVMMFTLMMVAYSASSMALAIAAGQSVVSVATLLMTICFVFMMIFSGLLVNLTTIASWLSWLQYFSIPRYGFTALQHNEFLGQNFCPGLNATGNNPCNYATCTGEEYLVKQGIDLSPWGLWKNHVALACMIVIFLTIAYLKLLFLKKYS
As to the kind of experiment: Efflux ratio in BCRP transfected MDCKII canine P-gp knockout cells. The format is in vitro ADME. The conditions noted are these: Papp(B−A)/Papp(A−B), read-out: Efflux ratio MDCKII-hBCRP knock-in,canine pg-P KO. The method, then: as §7, §2, §3, §4, §5, §6

Data set [2] relates to ERK1/2(Thr202/Tyr204) phosphorylation (MEK-dependent) in A375 cells. As to the kind of experiment: Cellular Phospho-p44/42 MAPK (Erk1/2) (Thr202/Tyr204) Assay. Conditions: Homo sapiens, A-375, 1-hour incubation, pERK1/2 (Thr202/Tyr204) In-Cell Western normalized to GAPDH. The format is cell-based. The gist of the method:
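A375 cells exposed 1 h to 10-point 1:3 dilutions (top 20–1 μM, 0.5% DMSO), then fixed and stained for pERK1/2 (Thr202/Tyr204) by In-Cell Western. Signal normalized to GAPDH per well; DMSO and 1 μM reference inhibitor define 0 and 100% inhibition.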

T1 sequence (P08183 whole entry): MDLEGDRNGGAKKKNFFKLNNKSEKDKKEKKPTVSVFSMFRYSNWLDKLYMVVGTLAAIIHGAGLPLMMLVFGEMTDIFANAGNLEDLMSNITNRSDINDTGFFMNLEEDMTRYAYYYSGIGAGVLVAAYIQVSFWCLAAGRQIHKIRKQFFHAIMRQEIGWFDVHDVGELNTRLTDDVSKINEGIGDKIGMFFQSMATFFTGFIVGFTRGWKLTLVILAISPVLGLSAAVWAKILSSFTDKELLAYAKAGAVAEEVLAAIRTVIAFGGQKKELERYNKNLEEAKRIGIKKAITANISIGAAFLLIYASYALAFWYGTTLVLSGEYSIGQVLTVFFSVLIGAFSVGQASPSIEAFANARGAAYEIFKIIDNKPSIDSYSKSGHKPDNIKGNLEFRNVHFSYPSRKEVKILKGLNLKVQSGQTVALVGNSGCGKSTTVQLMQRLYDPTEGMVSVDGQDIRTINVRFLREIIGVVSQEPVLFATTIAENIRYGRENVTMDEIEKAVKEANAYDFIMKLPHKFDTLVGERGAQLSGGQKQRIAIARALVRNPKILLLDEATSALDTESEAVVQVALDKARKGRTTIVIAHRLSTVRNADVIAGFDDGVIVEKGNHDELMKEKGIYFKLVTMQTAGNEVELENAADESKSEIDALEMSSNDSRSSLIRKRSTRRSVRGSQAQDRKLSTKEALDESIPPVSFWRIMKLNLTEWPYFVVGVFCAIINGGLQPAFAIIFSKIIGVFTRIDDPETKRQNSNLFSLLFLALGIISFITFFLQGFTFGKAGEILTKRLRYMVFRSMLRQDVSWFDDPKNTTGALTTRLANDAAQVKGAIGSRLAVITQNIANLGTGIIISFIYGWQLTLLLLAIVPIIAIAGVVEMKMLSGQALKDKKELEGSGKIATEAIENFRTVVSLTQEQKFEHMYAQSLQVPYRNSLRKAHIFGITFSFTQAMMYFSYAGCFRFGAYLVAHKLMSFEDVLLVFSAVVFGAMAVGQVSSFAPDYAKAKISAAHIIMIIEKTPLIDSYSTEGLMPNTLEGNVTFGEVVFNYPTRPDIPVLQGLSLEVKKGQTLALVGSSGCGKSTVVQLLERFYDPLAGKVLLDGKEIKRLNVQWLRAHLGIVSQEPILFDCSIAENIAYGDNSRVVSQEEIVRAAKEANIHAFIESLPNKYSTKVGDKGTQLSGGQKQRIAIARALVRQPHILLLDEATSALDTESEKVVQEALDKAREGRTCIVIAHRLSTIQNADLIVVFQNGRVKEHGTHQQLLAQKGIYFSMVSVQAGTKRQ

Regarding `Cn1c(Nc2ccc(SC(F)F)cc2F)c2c(cc1=O)CCN(OCCO)C2=O` [Example 25, 8-((4-((difluoromethyl)thio)-2-fluorophenyl)amino)-2-(2-hydroxyethoxy)-7-methyl-3,4-dihydro-2,7-naphthyridine-1,6(2H,7H)-dione], the efflux ratio at 2 h, 1 μM at P-gp (MDR1) stood at 5.7; on BCRP (hBCRP), 14.1. In addition, the Papp at 2 h, 1 μM in data set [1] amounted to 26.4 ×10⁻⁶ cm/s. For the same compound, in data set [2], the half-inhibitory concentration (IC50) was determined as 0.003 µM.
For `Cn1c(Nc2ccc(I)cc2Cl)c2c(cc1=O)CCN(OCCO)C2=O` [Example 9, 8-((2-chloro-4-iodophenyl)amino)-2-(2-hydroxyethoxy)-7-methyl-3,4-dihydro-2,7-naphthyridine-1,6(2H,7H)-dione], the efflux ratio at 2 h, 1 μM at P-gp (MDR1) amounted to 7.7; on BCRP (hBCRP) it was 3.2. In addition, the Papp at 2 h, 1 μM in data set [1] is 27.1 ×10⁻⁶ cm/s. The compound also registered an IC50 in data set [2] of 0.003 µM.
As for `C[C@@H](O)CON1CCc2cc(=O)n(C)c(Nc3ccc(I)cc3F)c2C1=O` [Example 32, (R)-8-((2-fluoro-4-iodophenyl)amino)-2-(2-hydroxypropoxy)-7-methyl-3,4-dihydro-2,7-naphthyridine-1,6(2H,7H)-dione], the efflux ratio at 2 h, 1 μM on P-gp (MDR1) was 6.5; at BCRP (hBCRP), 5.2. The compound also displayed an apparent permeability coefficient (Papp) at 2 h, 1 μM in data set [1] of 24.8 ×10⁻⁶ cm/s. In data set [2], this compound displayed a concentration for half-maximal inhibition (IC50) of 0.01 µM.
On the same counts, the results for `Cn1c(Nc2ccc(I)cc2F)c2c(c(Cl)c1=O)CCN(OCCO)C2=O` [Example 38, 5-chloro-8-((2-fluoro-4-iodophenyl)amino)-2-(2-hydroxyethoxy)-7-methyl-3,4-dihydro-2,7-naphthyridine-1,6(2H,7H)-dione] are 4.5, 2.9, 24.6 ×10⁻⁶ cm/s and 0.007 µM.
On the same counts, the results for `CC(C)ON1CCc2cc(=O)n(C)c(Nc3ccc(I)cc3F)c2C1=O` [Example 27, 8-((2-fluoro-4-iodophenyl)amino)-2-isopropoxy-7-methyl-3,4-dihydro-2,7-naphthyridine-1,6(2H,7H)-dione] are 0.9, 1.4, 25.1 ×10⁻⁶ cm/s and 0.142 µM.
On the same counts, the results for `CCc1ccc(Nc2c3c(cc(=O)n2C)CCNC3=O)c(F)c1` [Example 51, 8-((4-ethyl-2-fluorophenyl)amino)-7-methyl-3,4-dihydro-2,7-naphthyridine-1,6(2H,7H)-dione] are 1.2, 1.2, 41.2 ×10⁻⁶ cm/s and 0.026 µM.
Consider `Cc1c2c(c(Nc3ccc(C4CC4)cc3F)n(C)c1=O)C(=O)N(OCCO)CC2` [Example 45, 8-((4-cyclopropyl-2-fluorophenyl)amino)-2-(2-hydroxyethoxy)-5,7-dimethyl-3,4-dihydro-2,7-naphthyridine-1,6(2H,7H)-dione], for which the efflux ratio at 2 h, 1 μM at P-gp (MDR1) turned out to be 2.2; on BCRP (hBCRP), 1.3. For the same compound, the apparent permeability coefficient (Papp) at 2 h, 1 μM in data set [1] turned out to be 31.8 ×10⁻⁶ cm/s. The compound further came in with an IC50 in data set [2] of 0.02 µM.
For `Cc1c2c(c(Nc3ccc(I)cc3F)n(C)c1=O)C(=O)NCC2` [Example 48, 8-((2-fluoro-4-iodophenyl)amino)-5,7-dimethyl-3,4-dihydro-2,7-naphthyridine-1,6(2H,7H)-dione], in that order: 1.4, 1, 16.2 ×10⁻⁶ cm/s and 0.006 µM.
For `Cn1c(Nc2ccc(Br)cc2F)c2c(c(F)c1=O)CCN(OCCO)C2=O` [Example 39, 8-((4-bromo-2-fluorophenyl)amino)-5-fluoro-2-(2-hydroxyethoxy)-7-methyl-3,4-dihydro-2,7-naphthyridine-1,6(2H,7H)-dione], in that order: 3.9, 3.2, 32.3 ×10⁻⁶ cm/s and 0.062 µM.
For `Cn1c(Nc2ccc(OC(F)F)cc2F)c2c(cc1=O)CCNC2=O` [Example 53, 8-((4-(difluoromethoxy)-2-fluorophenyl)amino)-7-methyl-3,4-dihydro-2,7-naphthyridine-1,6(2H,7H)-dione], in that order: 1.1, 1.8, 36.9 ×10⁻⁶ cm/s and 0.03 µM.
On to `CSc1ccc(Nc2c3c(cc(=O)n2C)CCN(C2CC2)C3=O)c(F)c1` [Example 4, 2-cyclopropyl-8-((2-fluoro-4-(methylthio)phenyl)amino)-7-methyl-3,4-dihydro-2,7-naphthyridine-1,6(2H,7H)-dione], for which the values for the efflux ratio at 2 h, 1 μM at P-gp (MDR1) and on BCRP (hBCRP) were 1.3 and 1.1, respectively. In data set [1], this compound showed an apparent permeability coefficient (Papp) at 2 h, 1 μM of 26.1 ×10⁻⁶ cm/s. For the same compound, in data set [2], the IC50 is 0.074 µM.
With `Cn1c(Nc2ccc(C3CC3)cc2Cl)c2c(cc1=O)CCN(OCCO)C2=O` [Example 19, 8-((2-chloro-4-cyclopropylphenyl)amino)-2-(2-hydroxyethoxy)-7-methyl-3,4-dihydro-2,7-naphthyridine-1,6(2H,7H)-dione], the efflux ratio at 2 h, 1 μM on P-gp (MDR1) amounted to 3.3; at BCRP (hBCRP), 1.5. In data set [1], this compound registered a Papp at 2 h, 1 μM of 25.9 ×10⁻⁶ cm/s. For the same compound, in data set [2], the half-maximal inhibitory concentration (IC50) is 0.029 µM.
For `Cc1c2c(c(Nc3ccc(C4CC4)cc3F)n(C)c1=O)C(=O)NCC2` [Example 57, 8-((4-cyclopropyl-2-fluorophenyl)amino)-5,7-dimethyl-3,4-dihydro-2,7-naphthyridine-1,6(2H,7H)-dione], in that order: 0.9, 1.2, 31.8 ×10⁻⁶ cm/s and 0.094 µM.
For `CSc1ccc(Nc2c3c(cc(=O)n2C)CCN(OCCO)C3=O)c(Cl)c1` [Example 21, 8-((2-chloro-4-(methylthio)phenyl)amino)-2-(2-hydroxyethoxy)-7-methyl-3,4-dihydro-2,7-naphthyridine-1,6(2H,7H)-dione], in that order: 4.2, 3, 28.8 ×10⁻⁶ cm/s and 0.01 µM.
For `Cn1c(Nc2ccc(I)cc2F)c2c(cc1=O)CCNC2=O` [Example 49, 8-((4-iodo-2-fluorophenyl)amino)-7-methyl-3,4-dihydro-2,7-naphthyridine-1,6(2H,7H)-dione trifluoroacetate], in that order: 1.4, 1, 39.3 ×10⁻⁶ cm/s and 0.002 µM.

The record behind these values is patent publication US11802127B2, “3,4-dihydro-2,7-naphthyridine-1,6(2H,7H)-diones as MEK inhibitors” (Pfizer Inc., priority 2021, dated 2023).
